Test results reported in patent publication US11458139B2, “Use of BRAF inhibitors for treating cutaneous reactions caused by treatment with a MEK inhibitor” (MEMORIAL SLOAN KETTERING CANCER CENTER, priority 2017, dated 2022).

Test system: MAPK (ERK)
Experiment: ERK phosphorylation (Phospho-ERK/total ERK) in normal human keratinocytes HEKa, Western blot
Format: cell-based
Conditions: 2 hours treatment; for effect on ERK activation: concentration not given (0.3 μM and 1 μM tested); for ERK activation (increase in the relative amount of Phosphorylated ERK): 0.3 μM (FIGS. 1A and 1C)
Description: Normal human keratinocytes HEKa (purchased from Gibco Rhenium) were seeded in 10 cm dishes (300,000 cells/dish) and incubated overnight at 37° C., 5% CO2. The medium was then replaced with a starvation medium for 2 hours and the cells were subsequently treated for 2 additional hours with the test compounds (i.e BRAF inhibitors). […]
Post incubation, the cells were lysed with RIPA buffer and the protein extracts were analyzed by Western blot to detect Phospho-ERK and total ERK using suitable antibodies. Untreated cells and 0.1% DMSO treated cells were used as negative control and Human Keratinocyte Growth Supplement (HKGS) (Gibco) was used as a positive control.
Western Blot: 7.5 μg of total extract was loaded on 10% or 12% acrylamide gel. Following transfer, the membranes were blocked with TBST/5% skimmed milk and then incubated with Mouse anti Phospho-ERK (1:1000 in TBST 5% BSA, ON at 4° C.) and goat anti Mouse HRP (1:10,000 in TBST 5% BSA, 1-hour RT). The membranes were exposed using SuperSignal West Pico Chemiluminescent Substrate.
HRP was subsequently inactivated by incubating the membranes for 1 hour with 0.5% sodium azide. Following washes and ECL exposure in order to ensure absence of signal, the membranes were re-blocked for 15 min with TBST/5% skimmed milk and then incubated with Rabbit anti total ERK2 (1:500 in TBST 5% BSA, ON at 4° C.), goat anti Rabbit HRP (1:5,000 in TBST 5% BSA, 1-hour RT) and finally exposed using the SuperSignal West Pico Chemiluminescent Substrate. The films were scanned and the signal was quantified using ImageJ software. The results were calculated as Phospho-ERK/total ERK.
In this experiment, the effect of the BRAF inhibitor compounds disclosed herein on MAPK (ERK) phosphorylation in human keratinocytes (HEKa) was investigated. Phosphorylation of ERK served as an indicator for ERK activation.
In order to determine the effect of various BRAF inhibitors on ERK activation in relevant keratinocytes cells, the level of ERK phosphorylation was measured in normal human keratinocytes in response to treatment with the BRAF inhibitors.

| SMILES | effect on ERK activation | ERK activation (increase in the relative amount of Phosphorylated ERK) |
| --- | --- | --- |
| CNc1ncc2ccc(-c3c(C)ccc4c(Nc5cc(O)cc(O)c5)nccc34)cc2n1 [LUT001] | moderate effect on ERK activation |  |
| CNc1cc(-c2cccnc2Nc2c(C)ccc3c(Nc4ccc(I)cc4F)nccc23)ncn1 [LUT156] |  | significant ERK activation |
| C#Cc1cccc(Nc2nccc3c(-c4ccc5nc(NC)ncc5c4)c(C)ccc23)c1 [LUT192] | moderate effect on ERK activation |  |
| CNc1ncc2cc(-c3c(C)ccc4c(Nc5ccc(F)c(Cl)c5)nccc34)ccc2n1 [LUT195] | moderate effect on ERK activation |  |
| CNc1ncc2cc(-c3c(C)ccc4c(Nc5ccc(Cl)c(C(F)(F)F)c5)nccc34)ccc2n1 [LUT197] |  | significant ERK activation |
